For 30 molecules, IC50 results are on record in patent publication US8389557B2, “Triazole derivatives useful as Axl inhibitors” (Rigel Pharmaceuticals, Inc., priority 2005, dated 2013).

The first assay has as its target T1, Axl (Homo sapiens, UniProt P30530).
T1 construct: endogenous in cells; host or cells: HeLa cells
T1 sequence (P30530 26-894): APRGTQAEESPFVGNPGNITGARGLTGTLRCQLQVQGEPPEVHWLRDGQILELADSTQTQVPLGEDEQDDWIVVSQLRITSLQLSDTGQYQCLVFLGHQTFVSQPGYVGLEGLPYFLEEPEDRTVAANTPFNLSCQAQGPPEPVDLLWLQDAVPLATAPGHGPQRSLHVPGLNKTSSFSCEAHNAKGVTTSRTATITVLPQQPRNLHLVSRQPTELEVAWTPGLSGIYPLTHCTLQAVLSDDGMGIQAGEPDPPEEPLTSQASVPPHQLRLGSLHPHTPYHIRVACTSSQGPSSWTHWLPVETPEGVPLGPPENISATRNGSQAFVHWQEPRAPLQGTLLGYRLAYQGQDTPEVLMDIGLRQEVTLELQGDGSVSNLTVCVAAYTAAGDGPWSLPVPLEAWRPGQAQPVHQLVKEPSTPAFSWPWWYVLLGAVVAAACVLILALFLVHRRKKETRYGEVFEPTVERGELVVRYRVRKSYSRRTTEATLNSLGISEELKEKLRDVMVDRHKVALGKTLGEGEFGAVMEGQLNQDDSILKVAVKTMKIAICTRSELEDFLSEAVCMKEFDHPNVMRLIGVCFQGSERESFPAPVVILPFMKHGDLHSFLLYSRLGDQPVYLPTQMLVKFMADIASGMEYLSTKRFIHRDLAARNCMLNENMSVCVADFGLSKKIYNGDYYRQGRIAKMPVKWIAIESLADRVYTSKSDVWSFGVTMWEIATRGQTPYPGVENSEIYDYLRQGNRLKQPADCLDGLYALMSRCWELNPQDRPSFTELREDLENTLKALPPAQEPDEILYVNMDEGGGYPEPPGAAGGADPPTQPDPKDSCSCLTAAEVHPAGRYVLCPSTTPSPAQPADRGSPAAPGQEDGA
Nature of the assay: Phospho-Akt in-cell Western assay (inhibition of Axl activity). Type of assay: cell-based. The conditions noted are these: Table 2; Hela cells, Axl antibody cross-linking stimulation, phospho-Akt chemiluminescence. The essentials:
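HeLa cells on poly-L-lysine, starved 24 h in 0.5% FCS DMEM with Axl/Fc 500 ng/mL, pre-treated with compound 1 h at 37° C. Axl stimulated 5 min by anti-Axl/anti-mouse antibody cross-linking. Fixed cells probed with anti-phospho-Akt and HRP secondary, chemiluminescence read.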
As for `Cc1cccc(C(=O)n2nc(N)nc2Nc2cccc(OCC(=O)NC3CCCCC3)c2)c1` [compound 164, 3-amino-5-[3-[cyclohexylaminocarbonylmethoxy]phenylamino]-1-(3-(methyl)phenyl)carbonyl-1H-1,2,4-triazole], the IC50 was greater than 20 µM.
`CC(C)Oc1ccc(C(=O)n2nc(N)nc2Nc2ccc(OCCN3CCCC3)cc2)cc1` [compound 191, 3-amino-1-(4-iso-propoxyphenyl)carbonyl-5-[4-[2-(pyrrolidin-1-yl)ethoxy]phenylamino]-1H-1,2,4-triazole]: the half-maximal inhibitory concentration (IC50) is 1 to 10 µM.
On the same count and under the same terms, under `CC(C)Oc1ccc(C(=O)n2nc(N)nc2Nc2ccc(N3CCCCC3)cc2)cc1` [compound 192, 3-amino-1-(4-(iso-propoxy)phenyl)carbonyl-5-[4-(piperidin-1-yl)phenylamino]-1H-1,2,4-triazole] stands 10 to 20 µM.

The assay is the same for the next values; noted with them: Table 3; Hela cells, Axl antibody cross-linking stimulation, phospho-Akt chemiluminescence.
The molecule `CC(C)Oc1cncc(C(=O)n2nc(Nc3ccc(OCCN4CCOCC4)cc3)nc2N)c1` [compound 171, 5-amino-1-(3-(iso-propoxy)pyridin-5-yl)carbonyl-3-[4-[2-(morpholin-4-yl)ethoxy]phenylamino]-1H-1,2,4-triazole] registered a 50% inhibitory concentration (IC50) of 1 to 10 µM.

The assay is the same for the next values; noted with them: Table 5; Hela cells, Axl antibody cross-linking stimulation, phospho-Akt chemiluminescence.
As for `Cc1cccc(C(=O)n2nc(Nc3ccc4c(c3)NC(=O)CO4)nc2N)c1` [compound 161, 5-amino-3-(benzo[b][1,4]oxazin-3(4H)-on-6-yl)amino-1-(3-(methyl)phenyl)carbonyl-1H-1,2,4-triazole], the concentration for half-maximal inhibition (IC50) is greater than 20 µM.

Staying with this assay, now noted: Table 6; Hela cells, Axl antibody cross-linking stimulation, phospho-Akt chemiluminescence.
Take `Cc1cccc(C(=O)n2nc(N)nc2Nc2ccc3c(c2)N(C(=O)OC(C)(C)C)CCO3)c1` [compound 167]: the concentration for half-maximal inhibition (IC50) is greater than 20 µM.

The assay is the same for the next values; noted with them: Table 7; Hela cells, Axl antibody cross-linking stimulation, phospho-Akt chemiluminescence.
For the molecule `COc1ccc(Nc2nc(N)n(C(=O)Nc3ccc(Cl)cc3)n2)cc1` [compound 172, 5-amino-N-(4-chlorophenyl)-3-[4-(methoxy)phenylamino]-1H-1,2,4-triazole-1-carboxamide], the IC50 is greater than 20 µM.
On the same count and under the same terms, with `CC(=O)N(C)c1ccc(Nc2nc(N)n(C(=O)Nc3ccc(Cl)cc3)n2)cc1` [compound 174, 3-[4-(acetyl(methyl)amino)phenyl]amino-5-amino-N-(4-chlorophenyl)-1H-1,2,4-triazole-1-carboxamide] the figure was greater than 20 µM.
`CC(=O)N(C)c1ccc(Nc2nc(N)n(C(=O)Nc3ccc4c(c3)OCO4)n2)cc1` [compound 175, 3-[4-(acetyl(methyl)amino)phenyl]amino-5-amino-N-(1,3-benzodioxol-5-yl)-1H-1,2,4-triazole-1-carboxamide]: the IC50 lay within 1 to 10 µM.
Still for that read-out and setting: under `CC(=O)N(C)c1ccc(Nc2nc(N)n(C(=O)NC3CCCC3)n2)cc1` [compound 177, 3-[4-(acetyl(methyl)amino)phenyl]amino-5-amino-N-cyclopentyl-1H-1,2,4-triazole-1-carboxamide] stands greater than 20 µM; under `CC(=O)N(C)c1ccc(Nc2nc(N)n(C(=O)Nc3ccc(C(C)C)cc3)n2)cc1` [compound 179, 3-[4-(acetyl(methyl)amino)phenyl]amino-5-amino-N-(4-(iso-propyl)phenyl)-1H-1,2,4-triazole-1-carboxamide], 1 to 10 µM.
For the molecule `CCCCOc1ccc(NC(=O)n2nc(Nc3ccc(N(C)C(C)=O)cc3)nc2N)cc1` [compound 180, 3-[4-(acetyl(methyl)amino)phenyl]amino-5-amino-N-(4-(butoxy)phenyl)-1H-1,2,4-triazole-1-carboxamide], the concentration for half-maximal inhibition (IC50) lay in the range of 1 to 10 µM.
In turn, `CC(=O)N(C)c1ccc(Nc2nc(N)n(C(=O)NC3CCCCC3)n2)cc1` [compound 185, 3-[4-(acetyl(methyl)amino)phenyl]amino-5-amino-N-cyclohexyl-1H-1,2,4-triazole-1-carboxamide] returned a 50% inhibitory concentration (IC50) greater than 20 µM.

Staying with this assay, now noted: Table 8; Hela cells, Axl antibody cross-linking stimulation, phospho-Akt chemiluminescence.
Molecule `CC(=O)N(C)c1ccc(Nc2nc(N)nn2C(=O)Nc2ccc3c(c2)OCO3)cc1` [compound 176, 5-[4-(acetyl(methyl)amino)phenyl]amino-3-amino-N-(1,3-benzodioxol-5-yl)-1H-1,2,4-triazole-1-carboxamide] yielded a half-inhibitory concentration (IC50) greater than 20 µM.
On to `CC(=O)N(C)c1ccc(Nc2nc(N)nn2C(=O)NC2CCCC2)cc1` [compound 178, 5-[4-(acetyl(methyl)amino)phenyl]amino-3-amino-N-cyclopentyl-1H-1,2,4-triazole-1-carboxamide], for which the concentration for half-maximal inhibition (IC50) was greater than 20 µM.
For `CCCCOc1ccc(NC(=O)n2nc(N)nc2Nc2ccc(OCCN3CCCCC3)cc2)cc1` [compound 182, 3-amino-N-(4-(butoxy)phenyl)-5-[4-[2-(piperidin-1-yl)ethoxy]phenylamino]-1H-1,2,4-triazole-1-carboxamide], the IC50 is greater than 20 µM.
Same read-out and setting: under `Cc1ccc(NC(=O)n2nc(N)nc2Nc2ccc(OCCN3CCCCC3)cc2)cc1` [compound 183, 3-amino-N-(4-(methyl)phenyl)-5-[4-[2-(piperidin-1-yl)ethoxy]phenylamino]-1H-1,2,4-triazole-1-carboxamide] stands 1 to 10 µM; under `COc1ccc(NC(=O)n2nc(N)nc2Nc2ccc(OCCN3CCCCC3)cc2)cc1` [compound 184, 3-amino-N-(4-(methoxy)phenyl)-5-[4-[2-(piperidin-1-yl)ethoxy]phenylamino]-1H-1,2,4-triazole-1-carboxamide], 1 to 10 µM; under `Cc1cccc(NC(=O)n2nc(N)nc2Nc2ccc(OCCN3CCCCC3)cc2)c1` [compound 187, 3-amino-N-(3-(methyl)phenyl)-5-[4-[2-(piperidin-1-yl)ethoxy]phenylamino]-1H-1,2,4-triazole-1-carboxamide], 1 to 10 µM.
On the same count and under the same terms, under `COc1cc(NC(=O)n2nc(N)nc2Nc2ccc(OCCN3CCCCC3)cc2)cc(OC)c1` [compound 188, 3-amino-N-(3,5-dimethoxyphenyl)-5-[4-[2-(piperidin-1-yl)ethoxy]phenylamino]-1H-1,2,4-triazole-1-carboxamide] stands 1 to 10 µM; under `Nc1nc(Nc2ccc(OCCN3CCCCC3)cc2)n(C(=O)NC2CCCCC2)n1` [compound 189, 3-amino-N-cyclohexyl-5-[4-[2-(piperidin-1-yl)ethoxy]phenylamino]-1H-1,2,4-triazole-1-carboxamide], 1 to 10 µM; under `Nc1nc(Nc2ccc(OCCN3CCCCC3)cc2)n(C(=O)NC2CCCC2)n1` [compound 190, 3-amino-N-cyclopentyl-5-[4-[2-(piperidin-1-yl)ethoxy]phenylamino]-1H-1,2,4-triazole-1-carboxamide], greater than 20 µM.
The molecule `Nc1nc(Nc2ccc(OCCN3CCCCC3)cc2)n(C(=O)Nc2ccc3c(c2)OCO3)n1` [compound 193, 3-amino-N-(1,3-benzodioxol-5-yl)-5-[4-[2-(piperidin-1-yl)ethoxy]phenylamino]-1H-1,2,4-triazole-1-carboxamide] returned an IC50 of 1 to 10 µM.

Still in this assay, the particulars now being: inhibition of Axl activity, Table 1.
Molecule `Nc1nc(Nc2ccc3c(c2)OCCO3)nn1C(=O)c1ccc(O)cc1` [compound 162, 5-amino-3-(1,4-benzodioxan-6-yl)amino-1-(4-(hydroxy)phenyl)carbonyl-1H-1,2,4-triazole] gave a half-maximal inhibitory concentration (IC50) of 1 to 10 µM.
As to `CC(C)Oc1ccc(C(=O)n2nc(Nc3ccc(OCCN4CCCCC4)cc3)nc2N)cc1` [compound 163], the IC50 was less than 1 µM.
Regarding `Cc1cccc(C(=O)n2nc(Nc3cccc(OCC(=O)NC4CCCCC4)c3)nc2N)c1` [compound 165, 5-amino-3-[3-[cyclohexylaminocarbonylmethoxy]phenylamino]-1-(3-(methyl)phenyl)carbonyl-1H-1,2,4-triazole], the IC50 is greater than 20 µM.
The molecule `Nc1nc(Nc2ccc3c(c2)OCCO3)nn1C(=O)c1cccc(O)c1` [compound 166, 5-amino-3-(1,4-benzodioxan-6-yl)-amino-1-(3-(hydroxy)phenyl)carbonyl-1H-1,2,4-triazole] registered a half-maximal inhibitory concentration (IC50) of 1 to 10 µM.
`CC(C)Oc1cccc(C(=O)n2nc(Nc3ccc(OCCN4CCCCC4)cc3)nc2N)c1` [compound 168, 5-amino-1-(3-(iso-propoxy)phenyl)carbonyl-3-[4-[2-(piperidin-1-yl)ethoxy]phenylamino]-1H-1,2,4-triazole]: the half-maximal inhibitory concentration (IC50) is less than 1 µM.
In turn, `CC(C)Oc1cccc(C(=O)n2nc(Nc3ccc(OCCN4CCOCC4)cc3)nc2N)c1` [compound 169, 5-amino-1-(3-(iso-propoxy)phenyl)carbonyl-3-[4-[2-(morpholin-4-yl)ethoxy]phenylamino]-1H-1,2,4-triazole] displayed a half-inhibitory concentration (IC50) of less than 1 µM.
For `CC(C)Oc1cccc(C(=O)n2nc(Nc3cccc(-c4cnco4)c3)nc2N)c1` [compound 170, 5-amino-1-(3-(iso-propoxy)phenyl)carbonyl-3-[3-(1,3-oxazol-5-yl)phenylamino]-1H-1,2,4-triazole], the IC50 fell in the range of 1 to 10 µM.

One may read the IC50 as the concentration needed to halve the response being measured. Lower therefore signals higher potency.
